The subject of the experiment is Beta-TC6. In words: Increase in insulin release in mouse BetaTC6 cells assessed as relative insulin release activity at 10 uM incubated for 2 to 4 hrs by FRET based HTRF assay relative to sunitinib. The experiment is classed as functional. (Time-resolved FRET reads energy transfer from a long-lived donor to a nearby acceptor.)
In the case of `c1cncc(-c2cnc3cnc(-c4cc5ccccc5s4)cn23)c1`, the Activity is listed as 20%.
For the compound `CCOc1cccc(-c2cn3c(-c4ccc5c(c4)OCO5)cnc3cn2)c1`, the Activity is listed as 50%.
Take `CN(C)C(=O)c1cccc(-c2ccc3nnc(-c4ccc5nccnc5c4)n3c2)c1`: the Activity is on record as 50%.
The result for `CN(C)c1ccc(-c2cnc3cnc(-c4ccccc4N(C)C)cn23)cc1` reads 20%; that for `COc1cc(-c2cnc3cnc(-c4ccc(N5CCN(C)CC5)nc4)cn23)ccc1O`, 20%; that for `C(=C\c1cn2c(-c3cccs3)cnc2cn1)/c1ccccc1`, 20%.
`COc1ccc(-c2cnc3cnc(-c4cccc(C(N)=O)c4)cn23)cn1`: the Activity amounted to 20%.
Regarding `COc1ccccc1-c1ccc2ncc(-c3ccc(F)c(Cl)c3)n2n1`, the Activity came to 20%.
The result for `CC(=O)Nc1cccc(-c2cn3c(-c4ccc(F)c(Cl)c4)cnc3cn2)c1` reads 20%; that for `CS(=O)(=O)Nc1cccc(-c2ccc3ncc(-c4ccncc4)n3n2)c1`, 20%; that for `O=C(O)CCc1ccc(-c2cnc3cnc(-c4ccccc4CO)cn23)cc1`, 20%.
The result for `CN(C)c1cccc(-c2cnc3cnc(-c4ccc(CO)cc4)cn23)c1` reads 20%.
Next, `Clc1cccc(-c2nnc3ccc(-c4cncc5ccccc45)cn23)c1`: 50%; `N#Cc1cccc(-c2nnc3ccc(-c4ccccn4)cn23)c1`: 20%.
As to `CC(=O)Nc1cccc(-c2ccc3nnc(-c4ccc5nccnc5c4)n3c2)c1`, the Activity was found to be 50%.
Next, `CC(C)c1cccc(-c2ccc3nnc(-c4cccnc4)n3c2)c1`: 50%; `Cc1ccc(CNc2ccc3ncc(-c4ccc(C(=O)NCCN(C)C)cc4)n3n2)c(C)c1`: 20%; `CN1CCN(c2ccc(-c3cn4c(-c5cccc(O)c5)cnc4cn3)cc2)CC1`: 20%.
Next, `Oc1cccc(-c2cnc3cnc(/C=C/c4ccccc4)cn23)c1`: 20%.
As for `CN(C)CCCOc1ccc(-c2cn3c(-c4ccc(N(C)C)cc4)cnc3cn2)cn1`, the Activity was determined as 50%.
On to `COc1cccc(CC(=O)Nc2cnc3cnc(-c4cnn(C)c4)cn23)c1`, for which the Activity is listed as 10%.
Turning to `CC(=O)c1ccc(-c2cn3c(-c4ccc(C(=O)NC5CC5)cc4)cnc3cn2)s1`, the Activity was found to be 20%.
Next, `Clc1cccc(-c2cn3c(-c4ccc5c(c4)OCO5)cnc3cn2)c1`: 50%; `c1cncc(-c2cnc3cnc(-c4ccc(N5CCOCC5)cc4)cn23)c1`: 20%.
As for `OCc1ccc(-c2cn3c(-c4cccc(Cl)c4)cnc3cn2)cc1`, the Activity was 20%.
For the compound `CN(C)c1ccc(-c2cnc3cnc(-c4ccc(C(=O)NCCO)cc4)cn23)cc1`, the Activity is given as 50%.
Next, `CCOc1ccc(-c2cnc3cccnn23)cc1`: 10%; `COc1cc(-c2ccc3ncc(-c4ccc(F)c(Cl)c4)n3n2)cc(OC)c1OC`: 10%; `Cc1cccc(-c2cn3c(-c4ccc(CCC(=O)O)cc4)cnc3cn2)c1C`: 50%.
The result for `Nc1ccc(-c2cn3c(-c4ccc5c(c4)OCO5)cnc3cn2)cn1` reads 10%; that for `CSc1ccc(-c2cn3c(-c4cccnc4)cnc3cn2)cc1`, 20%.
The result for `CN(C)c1cccc(-c2cnc3cnc(-c4cccs4)cn23)c1` reads 20%; that for `CS(=O)(=O)Nc1ccc(-c2cnc3cccnn23)cc1`, 10%; that for `Oc1cccc(-c2cnc3cnc(-c4cccs4)cn23)c1`, 20%.
As to `OCc1ccc(-c2cn3c(-c4cccc(F)c4)cnc3cn2)cc1`, the Activity is 20%.
The result for `Oc1cccc(-c2ccc3nnc(-c4ccccn4)n3c2)c1` reads 50%.
As for `Clc1ccccc1-c1ccc2nnc(-c3cccnc3)n2c1`, the Activity is 50%.
Next, `COc1cc(OC)cc(-c2cn3c(-c4cccs4)cnc3cn2)c1`: 20%; `NC(=O)c1ccc(-c2ccc3ncc(-c4ccccc4)n3n2)cc1`: 20%; `CNC(=O)c1ccc(-c2ccc3nnc(-c4ccc(OCCCN(C)C)cc4)n3c2)cc1`: 20%.
The result for `CC(C)N1CCN(c2ccc(-c3cn4c(-c5ccc(O)cc5)cnc4cn3)cc2)CC1` reads 20%; that for `COc1cc(OC)cc(-c2cn3c(-c4ccc5c(c4)OCO5)cnc3cn2)c1`, 50%.
As to `c1cncc(CCNc2ccc3ncc(-c4ccc(N5CCOCC5)cc4)n3n2)c1`, the Activity is 50%.
With `Cc1ccccc1-c1cnc2cnc(-c3cccc(F)c3)cn12`, the Activity amounted to 10%.
Take `CC(C)N1CCN(c2ccc(-c3cn4c(-c5ccc(C(=O)NC6CC6)cc5)cnc4cn3)cc2)CC1`: the Activity amounted to 20%.
The result for `Clc1cccc(-c2cn3c(-c4cccs4)cnc3cn2)c1` reads 20%.
Next, `CC(=O)c1cccc(-c2cnc3cnc(-c4ccc(C(=O)NCCN(C)C)cc4)cn23)c1`: 20%.
As to `OCc1cccc(-c2ccc3nnc(-c4ccccn4)n3c2)c1`, the Activity is on record as 20%.
Next, `CN(C)c1ccc(-c2cnc3cnc(-c4ccccc4Cl)cn23)cc1`: 20%; `CN(C)c1ccc(-c2cnc3cnc(-c4ccc(O)cc4)cn23)cc1`: 50%; `COc1ccc(-c2cnc3ccc(N[C@H](CO)C(C)C)nn23)c(OC)c1`: 20%.
On to `c1cnn2c(-c3ccc4c(c3)CCO4)cnc2c1`, for which the Activity worked out at 10%.
In the case of `O=C(Nc1cnc2cnc(-c3ccc4ccccc4c3)cn12)C1CCOC1` (stereo not given), the Activity came to 10%.
The result for `FC(F)(F)c1cccc(C#Cc2ccc3nnc(-c4ccncc4)n3c2)c1` reads 10%.
The result for `c1ccc(Oc2ccccc2-c2cn3c(-c4ccncc4)cnc3cn2)cc1` reads 20%.
Next, `CS(=O)(=O)Nc1cccc(-c2cnc3ccc(Cc4ccc(F)cc4)nn23)c1`: 10%.
`OCc1cccc(-c2cnc3cnc(-c4cccs4)cn23)c1`: the Activity is recorded as 20%.
In the case of `CC(=O)Nc1ccc(-c2cnc3ccc(-c4ccc(S(C)(=O)=O)cc4)nn23)cc1`, the Activity is recorded as 10%.
Next, `COc1ccc(-c2ccc3nnc(-c4ccoc4)n3c2)cc1`: 50%; `COc1ccccc1CC(=O)Nc1cnc2cnc(-c3cccc(Cl)c3Cl)cn12`: 20%; `c1coc(-c2cn3c(-c4ccsc4)cnc3cn2)c1`: 20%.
As to `COc1ccccc1-c1ccc2ncc(-c3cccc(OC(F)(F)F)c3)n2n1`, the Activity is given as 10%.
Regarding `CC(=O)c1ccc(-c2cnc3cccnn23)cc1`, the Activity was 10%.
For the compound `CN(C)CCCNC(=O)c1ccc(-c2cn3c(-c4ccc5c(ccn5C)c4)cnc3cn2)cc1`, the Activity is on record as 20%.
The result for `Clc1cccc(-c2ccc3nnc(-c4ccc5c(c4)OCO5)n3c2)c1` reads 20%.
Regarding `Nc1cccc(-c2cnc3ccc(NC4CCOCC4)nn23)c1`, the Activity was determined as 20%.
Next, `COc1ccc(CNc2ccc3ncc(-c4ccc5[nH]ccc5c4)n3n2)cc1`: 20%; `Clc1cccc(-c2nnc3ccc(-c4cncnc4)cn23)c1`: 20%; `Clc1ccc(-c2cnc3cnc(-c4cccs4)cn23)cc1`: 20%.
As to `Oc1cccc(-c2nnc3ccc(-c4ccc(F)cc4)cn23)c1`, the Activity is listed as 50%.
For `Nc1cccc(-c2ccc3ncc(-c4cccc(Cl)c4)n3n2)c1`, the Activity came out at 20%.
`CN(C)C(=O)c1ccc(-c2cnc3cnc(-c4ccc5c(ccn5C)c4)cn23)cc1`: the Activity is reported as 20%.
Next, `CN(C)c1ccc(-c2ccc3ncc(-c4ccc(CO)cc4)n3n2)cc1`: 50%.
In the case of `CC(=O)Nc1ccc(-c2cnc3ccc(-c4ccc(N5CCOCC5)cc4)nn23)cc1`, the Activity result is reported as “>=100%”.
The result for `COc1cc(-c2cn3c(-c4ccc5c(ccn5C)c4)cnc3cn2)ccc1O` reads 20%; that for `c1csc(-c2cn3c(-c4ccncc4)cnc3cn2)c1`, 20%; that for `Fc1ccc(-c2cnc3cnc(-c4ccco4)cn23)cc1Cl`, 20%.
Next, `CC(=O)c1cccc(-c2cnc3ccc(-c4ccc(N)nc4)nn23)c1`: 20%; `NC(=O)c1ccc(-c2cnc3ccc(Cc4ccc(F)c(F)c4)nn23)cc1`: 20%; `N#Cc1ccc(-c2cnc3cnc(-c4ccccc4)cn23)cc1`: 20%.
Next, `COc1cc(OC)cc(-c2cn3c(-c4cccc(N(C)C)c4)cnc3cn2)c1`: 20%; `CCCNc1ccc2ncc(-c3cccc(/C=C/C(=O)O)c3)n2n1`: 10%.
Regarding `Oc1cccc(-c2ccc3ncc(-c4cccc(C(F)(F)F)c4)n3n2)c1`, the Activity was found to be 20%.
The result for `Fc1ccc(-c2ccc3ncc(-c4cccs4)n3n2)cc1Cl` reads 20%; that for `CC(=O)c1cccc(-c2cn3c(NC(=O)CC4CC4)cnc3cn2)c1`, 20%; that for `Clc1cccc(-c2nnc3ccc(-c4ccoc4)cn23)c1`, 50%.
With `CCOc1cccc(-c2cn3c(-c4ccc(CCC(=O)O)cc4)cnc3cn2)c1`, the Activity entry is given as “>=100%”.
As to `COc1ccc(-c2cn3c(-c4cccc(O)c4)cnc3cn2)cn1`, the Activity came to 20%.
Consider `COc1ccc(-c2ccc3ncc(-c4cccc(Cl)c4)n3n2)c(C)c1`, for which the Activity is 10%.
Take `COc1ccc(-c2cnc3ccc(NCc4cccs4)nn23)c(OC)c1`: the Activity was found to be 20%.
With `FC(F)(F)Oc1cccc(-c2nnc3ccc(-c4cccs4)cn23)c1`, the Activity is on record as 50%.
The result for `COc1cc(-c2cn3c(-c4ccccc4Cl)cnc3cn2)ccc1O` reads 20%; that for `COc1ccc(-c2cnc3cnc(-c4ccc(N5CCN(C)CC5)cc4)cn23)cn1`, 20%.
Next, `COc1cc(OC)cc(-c2cn3c(-c4cccc(O)c4)cnc3cn2)c1`: 20%.
The result for `O=C(NC1CC1)c1ccc(-c2cnc3cccnn23)cc1` reads 10%.

Source of the values: ChEMBL document CHEMBL3727361, “Nitrogen bicyclic compounds as inhibitors for Scyl1 and Grk5” (2014).
